Test results from PubChem BioAssay (NCI).
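GI50 is the concentration that inhibits growth by half. TGI denotes the concentration required for complete inhibition of growth.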

Key:
Assay in all cases: inhibition of tumour cell growth, NCI panel, 384-well format; in the data active means GI50 below about 0.43 µM; inactive means the rest
SK-MEL-5 melanoma = tested on: SK-MEL-5 melanoma
UACC-257 melanoma = tested on: UACC-257 melanoma
RXF 393 renal = tested on: RXF 393 renal
MDA-MB-468 breast = tested on: MDA-MB-468 breast
UACC-62 melanoma = tested on: UACC-62 melanoma
MCF7 breast = tested on: MCF7 breast
IGROV1 ovarian = tested on: IGROV1 ovarian
LOX IMVI melanoma = tested on: LOX IMVI melanoma
DU-145 prostate = tested on: DU-145 prostate
NCI-H522 lung = tested on: NCI-H522 lung
PC-3 prostate = tested on: PC-3 prostate
786-0 renal = tested on: 786-0 renal
HOP-62 NSCLC = tested on: HOP-62 NSCLC
HCT-116 colon = tested on: HCT-116 colon
A498 renal = tested on: A498 renal
BT-549 breast = tested on: BT-549 breast
OVCAR-8 ovarian = tested on: OVCAR-8 ovarian
NCI-H226 lung = tested on: NCI-H226 lung
NCI-H23 lung = tested on: NCI-H23 lung
HCT-15 colon = tested on: HCT-15 colon
HS 578T breast = tested on: HS 578T breast
OVCAR-5 ovarian = tested on: OVCAR-5 ovarian
SW-620 colon = tested on: SW-620 colon
SNB-75 CNS = tested on: SNB-75 CNS
CAKI-1 renal = tested on: CAKI-1 renal
T-47D breast = tested on: T-47D breast
RPMI-8226 leukemia = tested on: RPMI-8226 leukemia
CCRF-CEM leukemia = tested on: CCRF-CEM leukemia
MOLT-4 leukemia = tested on: MOLT-4 leukemia
MALME-3M melanoma = tested on: MALME-3M melanoma
HCC-2998 colon = tested on: HCC-2998 colon
SF-268 CNS = tested on: SF-268 CNS
TK-10 renal = tested on: TK-10 renal
A549 NSCLC = tested on: A549 NSCLC
NCI-H322M lung = tested on: NCI-H322M lung
SF-295 CNS = tested on: SF-295 CNS
KM12 colon = tested on: KM12 colon
SK-MEL-28 melanoma = tested on: SK-MEL-28 melanoma
HT29 colon = tested on: HT29 colon
SF-539 CNS = tested on: SF-539 CNS
SK-OV-3 ovarian = tested on: SK-OV-3 ovarian
MDA-MB-435 melanoma = tested on: MDA-MB-435 melanoma
OVCAR-4 ovarian = tested on: OVCAR-4 ovarian
U251 glioblastoma = tested on: U251 glioblastoma
UO-31 renal = tested on: UO-31 renal
SN12C renal = tested on: SN12C renal
K-562 leukemia = tested on: K-562 leukemia
MDA-MB-231 breast = tested on: MDA-MB-231 breast
SK-MEL-2 melanoma = tested on: SK-MEL-2 melanoma
SNB-19 CNS = tested on: SNB-19 CNS
NCI/ADR-RES ovarian = tested on: NCI/ADR-RES ovarian
M14 melanoma = tested on: M14 melanoma
HL-60(TB) leukemia = tested on: HL-60(TB) leukemia
OVCAR-3 ovarian = tested on: OVCAR-3 ovarian
COLO 205 colon = tested on: COLO 205 colon
ACHN renal = tested on: ACHN renal

COc1c(OC[C@H](O)CN2CCOCC2)ccc2c3n(c(=NC(=O)c4cccnc4C)nc12)CCN3
inactive: GI50 (SK-MEL-5 melanoma) > 100 µM | GI50 (UACC-257 melanoma) > 100 µM | GI50 (RXF 393 renal) > 100 µM | GI50 (MDA-MB-468 breast) 439 nM | GI50 (UACC-62 melanoma) > 100 µM | GI50 (LOX IMVI melanoma) > 100 µM | GI50 (DU-145 prostate) > 100 µM | GI50 (NCI-H522 lung) > 100 µM | GI50 (PC-3 prostate) 657 nM | GI50 ([…]-0 renal) > 100 µM | GI50 (HOP-62 NSCLC) > 100 µM | GI50 (HCT-116 colon) > 100 µM | GI50 (A498 renal) > 100 µM | GI50 (BT-549 breast) 38.6 µM | GI50 (OVCAR-8 ovarian) > 100 µM | GI50 (NCI-H226 lung) > 100 µM | GI50 (NCI-H23 lung) > 100 µM | GI50 (HCT-15 colon) > 100 µM | GI50 (HS 578T breast) 3.51 µM | GI50 (OVCAR-5 ovarian) > 100 µM | GI50 (SW-620 colon) > 100 µM | GI50 (CAKI-1 renal) > 100 µM | GI50 (RPMI-8226 leukemia) > 100 µM | GI50 (CCRF-CEM leukemia) 4.36 µM | GI50 (MALME-3M melanoma) > 100 µM | GI50 (HCC-2998 colon) > 100 µM | GI50 (SF-268 CNS) > 100 µM | GI50 (TK-10 renal) 2860 nM | GI50 (A549 NSCLC) > 100 µM | GI50 (NCI-H322M lung) 67.1 µM | GI50 (SF-295 CNS) > 100 µM | GI50 (KM12 colon) > 100 µM | GI50 (SK-MEL-28 melanoma) 55.1 µM | GI50 (HT29 colon) > 100 µM | GI50 (SF-539 CNS) > 100 µM | GI50 (MDA-MB-435 melanoma) > 100 µM | GI50 (OVCAR-4 ovarian) > 100 µM | GI50 (U251 glioblastoma) > 100 µM | GI50 (UO-31 renal) > 100 µM | GI50 (SN12C renal) > 100 µM | GI50 (K-562 leukemia) > 100 µM | GI50 (MDA-MB-231 breast) > 100 µM | GI50 (SK-MEL-2 melanoma) > 100 µM | GI50 (SNB-19 CNS) > 100 µM | GI50 (NCI/ADR-RES ovarian) > 100 µM | GI50 (M14 melanoma) > 100 µM | GI50 (OVCAR-3 ovarian) > 100 µM | GI50 (COLO 205 colon) > 100 µM | GI50 (ACHN renal) > 100 µM
active: GI50 (MCF7 breast) 87.9 nM | GI50 (IGROV1 ovarian) 111 nM | GI50 (SNB-75 CNS) 124 nM | GI50 (T-47D breast) 44.6 nM | GI50 (MOLT-4 leukemia) 160 nM | GI50 (SK-OV-3 ovarian) 413 nM | GI50 (HL-60(TB) leukemia) 14.5 nM
> 100 µM: TGI (SK-MEL-5 melanoma) | TGI (UACC-257 melanoma) | TGI (RXF 393 renal) | TGI (MDA-MB-468 breast) | TGI (UACC-62 melanoma) | TGI (MCF7 breast) | TGI (IGROV1 ovarian) | TGI (LOX IMVI melanoma) | TGI (DU-145 prostate) | TGI (NCI-H522 lung) | TGI (PC-3 prostate) | TGI (786-0 renal) | TGI (HOP-62 NSCLC) | TGI (HCT-116 colon) | TGI (A498 renal) | TGI (BT-549 breast) | TGI (OVCAR-8 ovarian) | TGI (NCI-H226 lung) | TGI (NCI-H23 lung) | TGI (HCT-15 colon) | TGI (HS 578T breast) | TGI (OVCAR-5 ovarian) | TGI (SW-620 colon) | TGI (SNB-75 CNS) | TGI (CAKI-1 renal) | TGI (RPMI-8226 leukemia) | TGI (CCRF-CEM leukemia) | TGI (MOLT-4 leukemia) | TGI (MALME-3M melanoma) | TGI (HCC-2998 colon) | TGI (SF-268 CNS) | TGI (TK-10 renal) | TGI (A549 NSCLC) | TGI (NCI-H322M lung) | TGI (SF-295 CNS) | TGI (KM12 colon) | TGI (SK-MEL-28 melanoma) | TGI (HT29 colon) | TGI (SF-539 CNS) | TGI (SK-OV-3 ovarian) | TGI (MDA-MB-435 melanoma) | TGI (OVCAR-4 ovarian) | TGI (U251 glioblastoma) | TGI (UO-31 renal) | TGI (SN12C renal) | TGI (K-562 leukemia) | TGI (MDA-MB-231 breast) | TGI (SK-MEL-2 melanoma) | TGI (SNB-19 CNS) | TGI (NCI/ADR-RES ovarian) | TGI (M14 melanoma) | TGI (HL-60(TB) leukemia) | TGI (OVCAR-3 ovarian) | TGI (COLO 205 colon) | TGI (ACHN renal)
573 nM: TGI (T-47D breast)
